Measured values as given in patent US20090105343A1, “Cancer Therapy And Medicaments Therefor” (The University of Birmingham, priority 2004, published 2009).
“Also recorded” adds a separate entry of the source.

Experiments:
Format in all cases: cell-based
RT-4 = experiment: Proliferation assay (ATP bioluminescence), RT-4 bladder cancer cells; details: Homo sapiens; RT-4 cells, 96 h; read-out: Estimated dose required to inhibit bladder cancer cell proliferation by 50% (ED50)
Method: (§1) The action of individual agents alone and in combination was examined using a bioluminescent technique to measure changes in cellular ATP (ViaLight HS, LumiTech, Nottingham, U.K.) with previously optimised conditions according to the manufacturer's instructions (Rashid, S. F. et al. Supra). Briefly, cells were plated in 96 well white-walled tissue culture-treated plates (Fisher Scientific Ltd. Loughborough, U.K.) (cancer cell lines at 2×10^3 cells/well; PrEC at 3.5×10^3 cells/well). […] After the incubation period, 100 μl of nucleotide releasing reagent was added to each well and cells were left for 30 minutes at room temperature. Liberated ATP was quantitated by adding 20 μl of ATP monitoring reagent (containing luciferin and luciferase) and measuring luminescence with a microplate luminometer (Berthold Detection Systems, Fisher Scientific Ltd.). ATP levels were recorded in relative luciferase units and growth inhibition was expressed as a percentage of control.

EJ-28 = experiment: Proliferation assay (ATP bioluminescence), EJ-28 bladder cancer cells; details: for Sensitivity of EJ-28 proliferation to ligand treatment: EJ-28 cells, ligand alone
Method: as §1

p21^(waf1/cip1) = experiment: Upregulation of CDKI p21(waf1/cip1); details: 2 μM
Method: (§2) Cells were seeded at a density of 2×10^4/cm^2 and allowed to grow for 36 h to ensure that cells were in mid-exponential phase upon treatment. Total RNA was extracted using the GenElute RNA extraction system (Sigma) according to manufacturer's instructions. Primary cultures were serially passaged and grown to 80% confluency in standard serum-free medium. Cells were fed one day prior to isolation of total RNA using the Qiagen RNeasy Midi kit (Qiagen, Palo Alto, Calif., USA).
(§3) For real time reverse transcription-polymerase chain reaction (RT-PCR), cDNA was prepared from 1 μg of total RNA by reverse transcription with Mu-MLV (Promega Southampton, UK) at 42° C. for 60 min in the presence of 100 mM Tris-HCl, pH 9.0, 500 mM KCl and 2 mM MgCl2, 100 μM random hexamers (Pharmacia, Pisacataway, N.J.), 2 mM dNTP and 20 U RNAsin (Promega) in a 20 μl reaction volume.
(§4) Expression of specific mRNAs was quantitated using the ABI PRISM 7700 Sequence Detection System. […]
(§5) Data were expressed as Ct values (the cycle number at which logarithmic PCR plots cross a calculated threshold line) and used to determine δCt values (δCt=Ct of the target gene minus Ct of the housekeeping gene). […]

DU-145 cells = experiment: Cell cycle analysis (propidium iodide flow cytometry); details: DU-145, 1 μM, after 24 hr (ctrl 41%)
Method: The effect of nuclear receptor ligands in combination with the HDAC inhibitors on the cell cycle was measured by staining DNA with propidium iodide (PI). Briefly, T25 flasks were seeded with 2.5×10^5 sub-confluent, exponentially proliferating cells, exposed to 100 nM 1α,25(OH)2D3 alone or combined with either 300 μM NaB or 15 nM TSA at times 0 (and re-dosed after 48 hours in 72 and 96 hr assays). After a total of 24, 48, 72 and 96 hours, cultures were harvested by trypsinising, counted and 1×10^6 cells were stained with PI buffer (10 μg/ml PI, 1% (w/v) tri-sodium citrate, 0.1% (v/v) Triton X-100, 100 μM sodium chloride (Sigma)). Cell cycle distribution was determined using a Becton-Dickinson Flow Cytometer and CellFIT Cell-Cycle Analysis software.

GADD45α [1] = experiment: GADD45α gene induction (Q-RT-PCR); details: 0.1 μM, 8 hr
Method: as §2, §3, §4, §5

GADD45α [2] = experiment: GADD45α induction in PC-3 cells after SMRT knock down; details: SMRT knocked down by RNAi
Text: SIRNA fragments (22mers) were generated in vitro using a Dicer generation system according to the manufacturer's protocol (Gene Therapy Systems, San Diego, Calif.). Briefly, a 650 bp region from the human SMRT gene sequence corresponding to 112 to 762 was amplified using the following primers containing T7 promoter sequences;
FS: 5′-[…]-3′ and RV: 5′-[…]-3′. This was subsequently cloned into the pGEM T easy vector (Promega), using the multiple cloning sites to allow for sequencing, large scale harvest. Digestion with ECoR1 released a pure concentrated template for in vitro […] with primers containing T7 recognition sequences to generate double stranded mRNA. This was subsequently cleaved with recombinant human Dicer enzyme to generate a pool of 22mers which cover the region targeted in the 5′prime region of the SMRT gene. Five hundred ng of purified double stranded RNA 22mers were transfected into each well (2×10^5 cells/well in 24-well plates) for 12 hrs. Cells were then left for a further 72 hr to allow gene silencing and subsequently treated with 1α,25(OH)2D3 (100 nM) for 6 hr and total RNA was harvested and Q-RT-PCR for SMRT and target genes was undertaken as above.

[3] = tested on: prostate cancer cell lines; experiment: Proliferation assay (ATP bioluminescence), prostate cancer cell lines, single agents and combinations
Method: as §1
The interactions of two compounds were assessed by measuring the mean of either the nuclear receptor ligand or the HDAC inhibitor acting alone or in combination. The mean observed combined effect was compared to the individual effects of the agents added together, using the Student's t-test. […] All other analyses were also compared using the Student's t-test.

SMILES: C[C@H](CCC(=O)O)[C@H]1CC[C@H]2[C@@H]3[C@H](O)C[C@@H]4C[C@H](O)CC[C@]4(C)[C@H]3CC[C@]12C [CDA, chenodeoxycholic acid]
- EC50 (RT-4): 11 µM
- ligand action in EJ-28 cells on co-treatment with SAHA (EJ-28; EJ-28, co-treatment with SAHA): restored the actions
- Sensitivity of EJ-28 proliferation to ligand treatment (EJ-28): insensitive

SMILES: O=C(CCCCCCC(=O)Nc1ccccc1)NO [SAHA, Suberoylanilide hydroxamic acid]
- upregulation of the CDKI p21(waf1/cip1) (p21^(waf1/cip1)): potent and immediate upregulation
- cells in G1 (DU-145 cells): 64%
- GADD45α induction, individual agent alone (GADD45α [1]): not significant

SMILES: C=C1/C(=C\C=C2/CCC[C@]3(C)[C@@H]([C@H](C)CCCC(C)(C)O)CC[C@@H]23)C[C@@H](O)C[C@@H]1O [Vit D, 1α,25-dihydroxyvitamin D3]
- GADD45α induction by ligand alone after SMRT knock down (GADD45α [2]): very strongly enhanced
- interaction of the ligand with SAHA on proliferation ([3]; co-treatment with SAHA, listed as 1α,25(OH)2D3): did not appear to extend; also recorded: does not
- augmentation of the ligand's action by TSA ([3]; co-treatment with TSA): augments
- Sensitivity of EJ-28 proliferation to ligand treatment (EJ-28): insensitive
